Source: US4318925A (priority 1977, dated 1982)
Counter-ions that a name gives are not always drawn. Like-named read-outs stand apart in the source and are kept apart here.

Tests used:
in vitro = conditions: human, kb cells
Newcastle diseases virus = conditions: Koji Aigami et al., J. of Medicinal Chemistry, Vol. 19, 536 (1976); cited from earlier work
Influenza AoPR/8 = format: in vivo, ddY male mice; conditions: subcutaneous, from 3 hours pre to 150 hours post infection, LLS 7 days after infection, Control (0 mg/kg) 4.8
influenza viruses = conditions: British Pat. No. 1,063,366; SCIENCE, Vol. 144, 862, (1964); cited from earlier work

`CCCCCCCCCCCOCC(=O)NC12CCCC3CC(CCC31)C2` (centres unmarked) [N-[3-(4-homoisotwistyl)]-2-undecyloxyacetamide] showed an MCC at 72 h (in vitro) of 10 µg/mL.
For `NC12CCCC3CC(CCC31)C2` (centres unmarked) [3-amino-4-homoisotwistane hydrochloride], the “antiviral activity against Newcastle diseases virus” value (Newcastle diseases virus) is listed as “have antiviral activity against Newcastle diseases virus”.
Compound `CCCCCOCC(=O)NC12CCCC3CC(CCC31)C2` (centres unmarked) [N-[3-(4-homoisotwistyl)]-2-pentyloxyacetamide] has an MCC at 72 h (in vitro) of 5 µg/mL.
In the case of `CN(C)CCOCC(=O)N(C)C12CCCC3CC(CCC31)C2` (centres unmarked) [N-methyl, N-[3-(4-homoisotwistyl)]-2-(2-dimethylaminoethoxy) acetamide hydrochloride], the “Lung Lesion Score” value (Influenza AoPR/8; 15 mg/kg) is reported as 4.50.
For `CCOCC(=O)NC12CCCC3CC(CCC31)C2` (centres unmarked) [N-[3-(4-homoisotwistyl)]-2-ethoxyacetamide], the MCC at 72 h (in vitro) was 25 µg/mL.
In the case of `O=C(COc1ccccc1)NC12CCCC3CC(CCC31)C2` (centres unmarked) [N-[3-(4-homoisotwistyl)]-2-phenoxyacetamide], the “Lung Lesion Score” value (Influenza AoPR/8; 15 mg/kg) is reported as 4.35.
With `CN(C)CCOCC(=O)NC12CCCC3CC(CCC31)C2` (centres unmarked) [N-[3-(4-homoisotwistyl)]-2-(2-dimethylaminoethoxy)-acetamide hydrochloride] the MCC at 72 h (in vitro) was 250 µg/mL and the “Lung Lesion Score” value (Influenza AoPR/8; 15 mg/kg) was 4.33.
For `NC12CC3CC(CC(C3)C1)C2` [Amantadine hydrochloride, reference compound], the MCC at 72 h (in vitro) was greater than 50 µg/mL and the “Lung Lesion Score” value (Influenza AoPR/8; 10 mg/kg) was 4.3.
In the case of `NC12CC3CC(CC(C3)C1)C2` [1-adamantanamine], the “antiviral activity against influenza viruses” value (influenza viruses) is given as “show antiviral against influenza viruses”.
